Patent publication US5968951A, “Benzenesulfonamide derivatives as bradykinin antagonists” (Fournier Industrie et Sante, priority 1995, dated 1999)
Counter-ions that a name gives are not always drawn.

These compounds were tested against T1, guinea-pig B2 receptor (Cavia porcellus, UniProt O70526) (assay: [3H]-bradykinin binding to guinea-pig ileum membranes). Settings: test compound 10^-6 M; [3H]-bradykinin 120 pM; 50 μg membrane protein; 90 min at 20° C.; read-out: Activity % (percentage inhibition of the binding of [3H]-bradykinin).
T1 construct: Ileum segments are isolated from male guinea-pigs of the Dunkin-Hartley strain; tissue Iffa Credo, l'Arbresle, France (animals); host or cells: ileum membranes of male Dunkin-Hartley guinea-pigs
T1 sequence (O70526 1-372): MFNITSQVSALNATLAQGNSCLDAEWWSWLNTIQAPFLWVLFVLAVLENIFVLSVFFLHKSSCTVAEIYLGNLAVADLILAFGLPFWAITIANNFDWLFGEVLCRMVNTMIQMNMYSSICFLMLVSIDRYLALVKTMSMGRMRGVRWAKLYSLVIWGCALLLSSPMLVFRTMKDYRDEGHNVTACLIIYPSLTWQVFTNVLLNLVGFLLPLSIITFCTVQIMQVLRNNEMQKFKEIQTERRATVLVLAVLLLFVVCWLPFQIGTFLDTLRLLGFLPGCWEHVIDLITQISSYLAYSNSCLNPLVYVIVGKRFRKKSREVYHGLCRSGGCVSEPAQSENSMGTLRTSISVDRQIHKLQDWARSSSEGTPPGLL
Method: We used the following pharmacological test: Ileum segments are isolated from male guinea-pigs of the Dunkin-Hartley strain (Iffa Credo, l'Arbresle, France) and ground in the following TES buffer: TES 25 mM, 1,10-phenanthroline 1 mM (pH 6.8), bacitracin 140 μg/ml, BSA 1 g/l. The membranes are then isolated by centrifugation (18,000 rpm; 20 min; 4° C.). The binding studies are carried out in the TES buffer using [^3 H]-bradykinin (120 pM) and 50 μg of membrane protein per test (final volume 500 μl) with an equilibrium time of 90 min at 20° C.

Structure (SMILES)	inhibition at 1 µM
Cc1ccc2cccc(OCc3c(Cl)ccc(S(=O)(=O)N(C)Cc4c[nH]c5ccccc45)c3Cl)c2n1 [Example 7, 2,4-Dichloro-N-methyl-N-[(indol-3-yl)methyl]-3-[(2-methylquinolin-8yl)oxymethyl]benzenesulfonamide]	97.6%
Cc1ccc2cccc(OCc3c(Cl)ccc(S(=O)(=O)N(C)Cc4ccc(N)cc4)c3Cl)c2n1 [Example 8, 2,4-Dichloro-N-methyl-N-[(4-aminophenyl)methyl]-3-[(2-methylquinolin-8-yl)oxymethyl]benzenesulfonamide dihydrochloride]	99.5%
Cc1ccc2cccc(OCc3c(Cl)ccc(S(=O)(=O)N(C)Cc4ccc(O)cc4)c3Cl)c2n1 [Example 9, 2,4-Dichloro-N-methyl-N-[(4-hydroxyphenyl)methyl]-3-[(2-methylquinolin-8-yl)oxymethyl]benzenesulfonamide]	99.5%
Cc1ccc2cccc(OCc3c(Cl)ccc(S(=O)(=O)N(C)Cc4cccc(C(N)=O)c4)c3Cl)c2n1 [Example 10, 2,4-Dichloro-N-methyl-N-[[3-(aminocarbonyl)phenyl]methyl]-3[(2-methylquinolin-8-yl)oxymethyl]benzenesulfonamide]	99.8%
CNC(=O)c1cccc(CN(C)S(=O)(=O)c2ccc(Cl)c(COc3cccc4ccc(C)nc34)c2Cl)c1 [Example 11, 2,4-Dichloro-N-methyl-N-[[3-(methylaminocarbonyl)phenyl]methyl]-3-[(2-methylquinolin-8-yl)oxymethyl]benzenesulfonamide]	100%
Cc1ccc2cccc(OCc3c(Cl)ccc(S(=O)(=O)N(C)Cc4cccc(C(=O)N(C)C)c4)c3Cl)c2n1 [Example 12, 2,4-Dichloro-N-methyl-N-[[3-[(dimethylamino)carbonyl]phenyl]methyl]-3-[(2-methylquinolin-8-yl)oxymethyl]benzenesulfonamide]	96.9%
Cc1ccc2cccc(OCc3c(Cl)ccc(S(=O)(=O)N(C)Cc4cccc(C(=O)NCCCO)c4)c3Cl)c2n1 [Example 13, 2,4-Dichloro-N-methyl-N-[[3-[(3-hydroxypropyl)aminocarbonyl]phenyl]-methyl]-3-[(2-methylquinolin-8-yl)oxymethyl]benzenesulfonamide]	99.3%
Cc1ccc2cccc(OCc3c(Cl)ccc(S(=O)(=O)N(C)Cc4cccc(C(=O)NCCN(C)C)c4)c3Cl)c2n1 [Example 14, 2,4-Dichloro-N-methyl-N-[[3-[[2-(dimethylamino)ethyl]aminocarbonyl]-phenyl]-methyl]-3-[(2-methylquinolin-8-yl)oxymethyl]benzenesulfonamide]	100%
Cc1ccc2cccc(OCc3c(Cl)ccc(S(=O)(=O)N(C)CCc4ccccc4)c3Cl)c2n1 [Example 15, 2,4Dichloro-N-methyl-N-(2-phenylethyl)-3-[(2-methylquinolin-8-yl)oxymethyl]benzenesulfonamide]	97.9%
Cc1ccc2cccc(OCc3c(Cl)ccc(S(=O)(=O)N(C)CCCCCCCN)c3Cl)c2n1 [Example 16, 2,4-Dichloro-N-methyl-N-(7-aminoheptyl)-3-[(2-methylquinolin-8-yl)oxymethyl]benzenesulfonamide bis(trifluoroacetate)]	100%
CNC(=O)CCCCCN(C)S(=O)(=O)c1ccc(Cl)c(COc2cccc3ccc(C)nc23)c1Cl [Example 19, 2,4-Dichloro-N-methyl-N-[6-(methylamino)-6-oxohexyl]-3-[(2-methylquinolin-8-yl)oxymethyl]benzenesulfonamide]	99%
Cc1ccc2cccc(OCc3c(Cl)ccc(S(=O)(=O)N(C)CCCCCCCCO)c3Cl)c2n1 [Example 20, 2,4-Dichloro-N-methyl-N-(8-hydroxyoctyl)-3-[(2-methylquinolin-8-yl)oxymethyl]benzenesulfonamide]	95.7%
Cc1ccc2cccc(OCc3c(Cl)ccc(S(=O)(=O)N(C)CCCCCCCCCCCCO)c3Cl)c2n1 [Example 21, 2,4-Dichloro-N-methyl-N-(12-hydroxydodecyl)-3-[(2-methylquinolin-8-yl)oxymethyl]benzenesulfonamide]	94.3%
Cc1ccc2cccc(OCc3c(Cl)ccc(S(=O)(=O)N(CCCCN)C(C)(C)C)c3Cl)c2n1 [Example 23, N-(4-Aminobutyl)-N-(1,1-dimethylethyl)-2,4-dichloro-3-[(2-methylquinolin-8-yl)oxymethyl]benzenesulfonamide]	92.8%
CC(=O)NCCCCN(C(C)(C)C)S(=O)(=O)c1ccc(Cl)c(COc2cccc3ccc(C)nc23)c1Cl [Example 24]	90.5%
Cc1ccc2cccc(OCc3c(Cl)ccc(S(=O)(=O)N(CCCCCCCO)Cc4ccccc4)c3Cl)c2n1 [Example 25, 2,4-Dichloro-N-(phenylmethyl)-N-(7-hydroxyheptyl)-3-[(2-methylquinolin-8-yl]oxymethyl]benzenesulfonamide]	95.1%
CNC(=O)CCCCCCCN(Cc1ccccc1)S(=O)(=O)c1ccc(Cl)c(COc2cccc3ccc(C)nc23)c1Cl [Example 28, 2,4-Dichloro-N-(phenylmethyl)-N-[8-(methylamino)-8-oxooctyl]-3-[(2-methylquinolin-8-yl)oxymethyl]benzenesulfonamide]	98%
